The source of these data is PMC6364417, “Kinase inhibitor library screening identifies synergistic drug combinations effective in sensitive and resistant melanoma cells” (Journal of Experimental & Clinical Cancer Research : CR, 2019).

Holding throughout (experiment): Kinase inhibitor library screening, PrestoBlue cell viability, 1 or 10 μM, 72 h
For data set [1], the system named is A375-XP cells (Vemurafenib-resistant). The method, then:
(§1) After 72 h of treatment, cell viability was assessed using the PrestoBlue Cell Viability Reagent (ThermoFisher Scientific). Measurements were performed with the CLARIOstar Monochromator microplate reader (BMG Labtech).
(§2) Kinase inhibitor library screening. […] Each cell line was treated in its sensitive form (parental), and also as 2 resistant derivatives, which were made resistant to either Vemurafenib (XP) or Dabrafenib (GP). Drugs were added at 2 different concentrations, 1 and 10 μM, for 72 h and cell viability was assessed using the PrestoBlue Cell Viability assay. Results are depicted as % viability compared to untreated cells. Each cell line was analyzed at least in duplicate. […] (XLSX 95 kb)

Data set [2] deals with 501Mel-GP cells (Dabrafenib-resistant). The note with it: 72 h. As to the method: as §1, §2
Data set [3] has as its system IGR37-XP cells (Vemurafenib-resistant). The method, then: as §1, §2
The next data set deals with IGR37 cells (parental). The method, then:
as §1, §2

Another data set relates to A375 cells (parental). The method, then: as §1, §2
Data set [4] has as its system 501Mel-XP cells (Vemurafenib-resistant). The note with it: 72 h. The method, then:
as §1, §2

For data set [5], the system named is IGR37-GP cells (Dabrafenib-resistant). As to the method: as §1, §2
The subject of data set [6] is A375-GP cells (Dabrafenib-resistant). The method, then: as §1, §2
The next data set deals with 501Mel cells (parental). The note with it: 72 h. The method, then: as §1, §2

Turning to `Cc1[nH]c(/C=C2\C(=O)Nc3ccc(S(=O)(=O)Cc4c(Cl)cccc4Cl)cc32)c(C)c1C(=O)N1CCC[C@@H]1CN1CCCC1` [PHA-665752], the “cell viability (kinase inhibitor library screening)” value is listed as 99.9% in data set [1] (A375 XP, 1μΜ, 72 h); 0.9% in data set [1] (A375 XP, 10μΜ, 72 h); 86.9% in [2] (501Mel GP, 1μΜ); -0.7% in data set [2] (501Mel GP, 10μΜ); 0.9% in [3] (IGR37 XP, 10μΜ, 72 h); 99.2% with IGR37 cells (parental) (IGR37 Parental, 1μΜ, 72 h). Moreover, the “cell viability (kinase inhibitor library screening)” value was 0.24% in the data set on IGR37 cells (parental) (IGR37 Parental, 10μΜ, 72 h); 1.9% in the data set on A375 cells (parental) (A375 Parental, 10μΜ, 72 h); 98.9% in the data set with A375 cells (parental) (A375 Parental, 1μΜ, 72 h); 70.6% in [4] (501Mel XP, 1μΜ); -0.7% in data set [4] (501Mel XP, 10μΜ); 98.8% in data set [5] (IGR37 GP, 1μΜ, 72 h). The “cell viability (kinase inhibitor library screening)” value in [5] (IGR37 GP, 10μΜ, 72 h) came out at 0.8%; in data set [6] (A375 GP, 1μΜ, 72 h) it was 96.1%; in data set [6] (A375 GP, 10μΜ, 72 h), 0.5%; in the data set on 501Mel cells (parental) (501Mel Parental, 1μΜ) it was 100.2%; with 501Mel cells (parental) (501Mel Parental, 10μΜ), 0.232%.

For orientation: viability means a read-out of living cells in per cent, often relative to untreated cells. As to `O=c1sn(-c2cccc3ccccc23)c(=O)n1Cc1ccccc1` [Tideglusib], the viability at 1 µM amounted to 105% in data set [1] (Homo sapiens, A-375, 72 h, read-out: cell viability, A375 XP, 1μΜ); 102% in data set [2] (Homo sapiens, read-out: cell viability, 501Mel GP, 1μΜ); 96.4% in data set [3] (Homo sapiens, IGR-37, 72 h, read-out: cell viability, IGR37 XP, 1μΜ); 103% in the data set with IGR37 cells (parental) (Homo sapiens, IGR-37, 72 h, read-out: cell viability, IGR37 Parental, 1μΜ); 95.4% in the data set on A375 cells (parental) (Homo sapiens, A-375, 72 h, read-out: cell viability, A375 Parental, 1μΜ); 98.8% in data set [4] (Homo sapiens, read-out: cell viability, 501Mel XP, 1μΜ). Also, the viability at 1 µM came out at 94.6% in data set [5] (Homo sapiens, IGR-37, 72 h, read-out: cell viability, IGR37 GP, 1μΜ); 98.4% in [6] (Homo sapiens, A-375, 72 h, read-out: cell viability, A375 GP, 1μΜ); 110% in the data set on 501Mel cells (parental) (Homo sapiens, read-out: cell viability, 501Mel Parental, 1μΜ). For the same compound, the viability at 10 µM stood at 108% in [1] (Homo sapiens, A-375, 72 h, read-out: cell viability, A375 XP, 10μΜ); 91.6% in data set [2] (Homo sapiens, read-out: cell viability, 501Mel GP, 10μΜ); 74.1% in [3] (Homo sapiens, IGR-37, 72 h, read-out: cell viability, IGR37 XP, 10μΜ); 99.7% in the data set on IGR37 cells (parental) (Homo sapiens, IGR-37, 72 h, read-out: cell viability, IGR37 Parental, 10μΜ); 97.4% in the data set on A375 cells (parental) (Homo sapiens, A-375, 72 h, read-out: cell viability, A375 Parental, 10μΜ); 90.4% in data set [4] (Homo sapiens, read-out: cell viability, 501Mel XP, 10μΜ). Moreover, the viability at 10 µM in data set [5] (Homo sapiens, IGR-37, 72 h, read-out: cell viability, IGR37 GP, 10μΜ) stood at 95.9%; in data set [6] (Homo sapiens, A-375, 72 h, read-out: cell viability, A375 GP, 10μΜ), 97.5%; with 501Mel cells (parental) (Homo sapiens, read-out: cell viability, 501Mel Parental, 10μΜ) it was 105%.

With `Cc1cnc(Nc2ccc(N3CCN(C)CC3)cc2)nc1Nc1cccc(S(=O)(=O)NC(C)(C)C)c1` [TG101209], the “cell viability, A375 XP, 1μΜ” value in data set [1] (A375 XP, 1μΜ, 72 h, in %) is 93.3. In data set [1] (A375 XP, 10μΜ, 72 h, in %), the “cell viability, A375 XP, 10μΜ” value amounted to 13.1. Further, in data set [2] (501Mel GP, 1μΜ, in %), the “cell viability, 501Mel GP, 1μΜ” value is listed as 109.4. Moreover, the “cell viability, 501Mel GP, 10μΜ” value in data set [2] (501Mel GP, 10μΜ, in %) is 1.7. In data set [3] (IGR37 XP, 10μΜ, 72 h), this compound displayed a cell viability, IGR37 XP, 10μΜ of 1.6%. The “cell viability, IGR37 XP, 1μΜ” value in data set [3] (IGR37 XP, 1μΜ, 72 h, in %) was 82.7. Further, in the data set with IGR37 cells (parental) (IGR37 Parental, 1μΜ, 72 h, in %), the “cell viability, IGR37 Parental, 1μΜ” value is 97.5. For the same compound, the “cell viability, IGR37 Parental, 10μΜ” value in the data set on IGR37 cells (parental) (IGR37 Parental, 10μΜ, 72 h, in %) is 6.5. Moreover, in the data set on A375 cells (parental) (A375 Parental, 1μΜ, 72 h, in %), the “cell viability, A375 Parental, 1μΜ” value was 87.8. In the data set with A375 cells (parental) (A375 Parental, 10μΜ, 72 h, in %), the “cell viability, A375 Parental, 10μΜ” value turned out to be 11.9. Moreover, the “cell viability, 501Mel XP, 1μΜ” value in [4] (501Mel XP, 1μΜ, in %) turned out to be 85.2. In data set [4] (501Mel XP, 10μΜ, in %), the “cell viability, 501Mel XP, 10μΜ” value is recorded as -0.127. In addition, the cell viability, IGR37 GP, 10μΜ in [5] (IGR37 GP, 10μΜ, 72 h) worked out at 3.2%. For the same compound, the “cell viability, IGR37 GP, 1μΜ” value in data set [5] (IGR37 GP, 1μΜ, 72 h, in %) is 98.5. The “cell viability, A375 GP, 1μΜ” value in data set [6] (A375 GP, 1μΜ, 72 h, in %) came out at 79.9. Moreover, the “cell viability, A375 GP, 10μΜ” value in [6] (A375 GP, 10μΜ, 72 h, in %) is listed as 14.4. Besides, the “cell viability, 501Mel Parental, 10μΜ” value in the data set on 501Mel cells (parental) (501Mel Parental, 10μΜ, in %) is recorded as 0.6.
